Test results reported in patent US12520844B2 (Bayer Aktiengesellschaft, priority 2020, dated 2026).

Assay: Measurement of Log P values by HPLC on reversed phase columns (EEC directive 79/831 Annex V.A8)
Type: physicochemical
Experimental: Measurement of Log P values as provided herein was performed according to EEC directive 79/831 Annex V.A8 by HPLC (High Performance Liquid Chromatography) on reversed phase columns with the following methods: • ^[a] Log P value is determined by measurement of LC-UV, in an acidic range, with 0.1% formic acid in water and acetonitrile as eluent (linear gradient from 10% acetonitrile to 95% acetonitrile). • ^[b] Log P value is determined by measurement of LC-UV, in a neutral range, with 0.001 molar ammonium acetate solution in water and acetonitrile as eluent (linear gradient from 10% acetonitrile to 95% acetonitrile). • ^[c] Log P value is determined by measurement of LC-UV, in an acidic range, with 0.1% phosphoric acid and acetonitrile as eluent (linear gradient from 10% acetonitrile to 95% acetonitrile).
If more than one Log P value is available within the same method, all the values are given and separated by “+”.
Calibration was done with straight-chain alkan2-ones (with 3 to 16 carbon atoms) with known Log P values (measurement of Log P values using retention times with linear interpolation between successive alkanones). Lambda-max-values were determined using UV-spectra from 200 nm to 400 nm and the peak values of the chromatographic signals

| LogP | SMILES |
| --- | --- |
| 4.13^[a] | CCOc1cccc(Oc2cnc(C)nc2C(=O)NCC(F)(F)c2ccc(C)cc2C)c1 [Compound I-047] |
| 5.04^[a] | Cc1ccc(C(F)=CNC(=O)c2nc(C3CC3)nnc2Oc2cccc(Br)c2F)c(C)c1 [Compound I-048] |
| 4.39^[a] | Cc1ccc(C(F)(F)CNC(=O)c2nc(C)ncc2Oc2ccc(C(F)(F)F)cc2)c(C)c1 [Compound I-049] |
| 4.47^[a] | Cc1ccc(C(F)(F)CNC(=O)c2nc(C3CC3)nnc2Oc2cccc(C)c2F)c(C)c1 [Compound I-050] |
| 5.16^[a] | Cc1ccc(/C(F)=C\NC(=O)c2nc(C3CC3)nnc2Oc2cccc(C)c2F)c(C)c1 [Compound I-051] |
| 2.59^[a] | Cc1cnn(CCNC(=O)c2nc(C)ncc2Oc2cccc(C3CC3)c2F)c1 [Compound I-052] |
| 4.49^[a] | Cc1ccc2c(c1)CCCC2NC(=O)c1nc(C)ncc1Oc1cccc(C2CC2)c1F (centres unmarked) [Compound I-053] |
| 3.93^[a] | Cc1ncc(Oc2cccc(C3CC3)c2F)c(C(=O)NCCOc2ccc(Cl)cc2)n1 [Compound I-054] |
| 4.42^[a] | Cc1ccc2c(c1)C(NC(=O)c1nc(C)ncc1Oc1cccc(C3CC3)c1F)CC(C)(C)O2 (centres unmarked) [Compound I-055] |
| 3.32^[a] | Cc1ccc(C(F)(F)CNC(=O)c2nc(C)ncc2Oc2cccc(C3COC3)c2)c(C)c1 [Compound I-056] |
| 2.78^[a] | Cc1ncc(Oc2cccc(C3CC3)c2F)c(C(=O)NC2CCS(=O)(=O)c3ccccc32)n1 (centres unmarked) [Compound I-057] |
| 3.71^[a] | Cc1ccc(C(F)(F)CNC(=O)c2nc(C)ncc2Oc2ccccc2)c(C)c1 [Compound I-058] |
| 3.66^[a] | COCCOc1cccc(Oc2cnc(C)nc2C(=O)NCC(F)(F)c2ccc(C)cc2C)c1 [Compound I-059] |
| 3.72^[a] | COc1ccc2c(c1)C(NC(=O)c1nc(C)ncc1Oc1cccc(C3CC3)c1F)C(OC)CC2 (centres unmarked) [Compound I-060] |
| 4.44^[a] | COc1cccc(Oc2nnc(C3CC3)nc2C(=O)N/C=C(\F)c2ccc(C)cc2C)c1 [Compound I-061] |
| 4.59^[a] | Cc1ccc(C(F)(F)CNC(=O)c2nc(C3CC3)nnc2Oc2cccc(Br)c2)c(C)c1 [Compound I-062] |
| 3.43^[a] | Cc1ncc(Oc2cccc(C3CC3)c2F)c(C(=O)NCCc2cccs2)n1 [Compound I-064] |
| 4.52^[a] | CCC(=O)N(CCc1ccccc1)C(=O)c1nc(C)ncc1Oc1cccc(C2CC2)c1F [Compound I-066] |
| 4.01^[a] | COc1ccc(CCN(C(C)=O)C(=O)c2nc(C)ncc2Oc2cccc(C3CC3)c2F)cc1 [Compound I-067] |
| 3.73^[a] | Cc1ccc(C(F)(F)CNC(=O)c2nc(C)ncc2Oc2cncc(C(F)(F)F)c2)c(C)c1 [Compound I-068] |
| 4.71^[a] | Cc1ncc(Oc2cccc(C3CC3)c2F)c(C(=O)NC2CCCc3cc(Br)ccc32)n1 (centres unmarked) [Compound I-069] |
| 4.42^[a] | CCc1cccc(Oc2cnc(C)nc2C(=O)NCC(F)(F)c2ccc(C)cc2C)c1 [Compound I-071] |

| LogP | SMILES |
| --- | --- |
| 3.67^[a] | COCc1cccc(Oc2cnc(C)nc2C(=O)NCC(F)(F)c2ccc(C)cc2C)c1 [Compound I-072] |
| 4.26^[a] | C#Cc1cccc(Oc2nnc(C3CC3)nc2C(=O)NCC(F)(F)c2ccc(C)cc2C)c1 [Compound I-073] |
| 2.60^[a] | Cc1cc(C)n(CCNC(=O)c2nc(C)ncc2Oc2cccc(C3CC3)c2F)n1 [Compound I-075] |
| 4.09^[a] | Cc1ncc(Oc2cccc(C3CC3)c2F)c(C(=O)NC(C)c2ccc(Cl)s2)n1 (centres unmarked) [Compound I-076] |
| 3.30^[a] | Cc1ncc(Oc2cccc(C3CC3)c2F)c(C(=O)NCCc2ccc3c(c2)OCCO3)n1 [Compound I-077] |
| 3.81^[a] | Cc1ncc(Oc2cccc(C3CC3)c2F)c(C(=O)NC2CCCc3sc(C4CC4)nc32)n1 (centres unmarked) [Compound I-078] |
| 3.53^[a] | Cc1ccc(C(F)(F)CNC(=O)c2nc(C)ncc2Oc2cccc(C#N)c2)c(C)c1 [Compound I-079] |
| 4.52^[a] | Cc1ncc(Oc2cccc(C3CC3)c2F)c(C(=O)NCCOc2ccc(C(F)(F)F)cc2Cl)n1 [Compound I-081] |
| 4.19^[a] | COc1cccc(Oc2nnc(C3CC3)nc2C(=O)NCC(F)(F)c2ccc(C)cc2C)c1 [Compound I-082] |
| 2.88^[a] | Cc1ncc(Oc2cccc(C3CC3)c2F)c(C(=O)NCCn2cc(Cl)cn2)n1 [Compound I-086] |
| 3.43^[a] | Cc1ncc(Oc2cccc(C3CC3)c2F)c(C(=O)NCCc2ccc3c(c2)CCO3)n1 [Compound I-087] |
| 4.72^[a] | Cc1ncc(Oc2cccc(C3CC3)c2F)c(C(=O)N(Cc2ccccc2)OCC(C)C)n1 [Compound I-088] |
| 3.93^[a] | COc1cc(C(F)CNC(=O)c2nc(C)ncc2Oc2cccc(C3CC3)c2F)ccc1Cl (centres unmarked) [Compound I-089] |
| 4.49^[a] | Cc1ccc(C(F)(F)CNC(=O)c2nc(C)ncc2Oc2cccc3c2CCC3)c(C)c1 [Compound I-092] |
| 4.54^[a] | Cc1ccc(C(F)(F)CNC(=O)c2nc(C)ncc2Oc2ccc(C)c(Cl)c2)c(C)c1 [Compound I-093] |
| 4.50^[a] | Cc1ccc(C(F)(F)CNC(=O)c2nc(C)ncc2Oc2cccc(OC(F)(F)F)c2)c(C)c1 [Compound I-094] |
| 4.05^[a] | Nc1ncc(Oc2cccc(C(F)(F)F)c2)c(C(=O)NCCc2ccc(Br)cc2)n1 [Compound I-095] |
| 2.88^[a] | CC(NC(=O)c1nc(F)ncc1Oc1cccc(C(F)(F)F)c1)c1cccc(C(F)(F)F)c1 (centres unmarked) [Compound I-096] |
| 2.87^[a] | Cc1ncc(Oc2cccc(C3CC3)c2F)c(C(=O)NOCc2ccc(C#N)cc2)n1 [Compound I-097] |
| 3.44^[a] | Cc1ncc(Oc2cccc(C3CC3)c2F)c(C(=O)NCCc2ccc(OC(C)C)nc2)n1 [Compound I-099] |
| 4.56^[a] | Cc1ccc(C(F)(F)CNC(=O)c2nc(C)ncc2Oc2ccc3c(c2)CCC3)c(C)c1 [Compound I-104] |
| 5.36^[a] | Cc1ccc(/C(F)=C/NC(=O)c2nc(C3CC3)nnc2Oc2cccc(Cl)c2F)c(C)c1 [Compound I-105] |

| SMILES | LogP |
| --- | --- |
| Cc1ncc(Oc2cccc(C3CC3)c2F)c(C(=O)NCC(F)(F)c2cc(Cl)sc2Cl)n1 [Compound I-070] | 4.69^[a] |
| Cc1ncc(Oc2cccc(C3CC3)c2F)c(C(=O)NC2CC(C)(C)Oc3cc(Cl)c(F)cc32)n1 (centres unmarked) [Compound I-080] | 4.87^[a] |
| Cc1ccc(C(F)(F)CNC(=O)c2nc(C)ncc2Oc2cccc(C)c2F)c(C)c1 [Compound I-083] | 4.07^[a] |
| COc1cccc(Oc2cnc(C)nc2C(=O)NCC(F)(F)c2ccc(C)cc2C)c1F [Compound I-084] | 3.71^[a] |
| Cc1ccc(C(F)(F)CNC(=O)c2nc(C)ncc2Oc2cccc(Br)c2)c(C)c1 [Compound I-085] | 4.28^[a] |
| Cc1ccc(C(F)(F)CNC(=O)c2nc(C)ncc2Oc2cccc([N+](=O)[O-])c2)c(C)c1 [Compound I-090] | 3.75^[a] |
| Cc1ncc(Oc2cccc(C3CC3)c2F)c(C(=O)NOCc2ccc(OC(F)(F)F)cc2)n1 [Compound I-100] | 3.89^[a] |
| C#Cc1cccc(Oc2cnc(C)nc2C(=O)NCC(F)(F)c2ccc(C)cc2C)c1 [Compound I-102] | 4.01^[a] |
| Cc1ccc(C(F)(F)CNC(=O)c2nc(C)ncc2Oc2cccc(C3CC3)c2F)c(C)c1 [Compound I-103] | 4.44^[a] |
